Assays:
IL-6 production = experiment: TNF-α induced IL-6 production by marrow stromal cells, ELISA; format: cell-based, human; settings: normal human stromal cells, FIG. 5B
Experimental: FIG. 5A-B: 5A. VCAM-1 expression using Western blot analysis. Normal human stromal cells were cultured with/without TNF and p62-ZZ inhibitors (#1-6) for 48 hours. The cell lysates were collected and VCAM-1 expression was measured using an anti-VCAM-1 antibody (Santa Cruz). FIG. 5B. IL-6 production by human and mouse marrow stromal cells by ELISA. Normal human and mouse marrow stromal cells were cultured with/without TNFα and p62-ZZ inhibitors (#1-6) for 48 hours. The cell culture media were collected and IL-6 production measured using an IL-6 ELISA kit (R &D). Data are shown as the means (n=2).
Normal human or mouse marrow stromal cells were maintained in 10% FBS-IMDM and treated with p62-ZZ inhibitors (#1-6) for 3 hours. Then TNFα or vehicle was added for 48 hours. Cell lysates were collected and VCAM-1 expression measured by Western blot using an anti-VCAM-1 antibody (Santa Cruz). The culture media were collected and IL-6 production was measured using an IL-6 ELISA kit (R&D Company).

[1] = system: GFP-labeled human myeloma MM1.S cells; experiment: GFP-labeled MM1.S myeloma cell growth with/without stromal cells, fluorescence microscopy; format: cell-based; settings: 10 μM, 72 hours, FIG. 3
Experimental: FIG. 3 is a graph depicting MM cell growth inhibition. Data is shown as the mean±SD (n=5). *: P<0.01 compared to no-inhibitor cultures without stromal cells. **: P<0.01 compared to no-treatment co-cultured with stromal cells.
Compound 3 was tested for its capacity to block MM-stimulated signaling in marrow stromal cells, thereby resulting in less bone destruction and MM growth. The effects of the compound 3 on GFP-labeled MM1.S myeloma cell growth with/without stromal cells, IL-6 and VCAM-1 expression on stromal cells induced by TNF-α and OCL formation, and TNF-α induced PKCζ phosphorylation, the specific kinase enzyme activated p62-ZZ, were examined. GFP-labeled MM1.S myeloma cells or normal human CFU-GM, a source of OCL precursors, were then co-cultured with human stromal cells with the p62-ZZ inhibitor. The 10 μM of inhibitor compound 3 blocked MM cell growth by 90% compared to vehicle (0.1% DMSO). […] VCAM-1 expression and IL-6 production induced by TNF-α on stromal cells was blocked by 30% and 90% respectively compared to vehicle levels. Furthermore, TNF-α induced PKC, phosphorylation blocked was in stromal cells and MM1.S when pre-treated with this p62-ZZ inhibitory compound for 3 hours.
Primary human bone marrow stromal cells were maintained in 10% FCS-IMDM. Stromal cells (1.5×10^3 cells/well) were cultured one day prior to the start of co-culture. Green fluorescent protein (GFP)-labeled human myeloma MM1.S cells (7.5×10^3 cells/well) were then cultured with/without stromal cells in the presence or absence of the p62-ZZ inhibitors (#1-6) for 72 hours. MM cell growth was determined by fluorescence microscopy.

CCOc1ccccc1/C=N/Nc1ccc(S(=O)(=O)c2ccc(N/N=C/c3ccccc3OCC)cc2)cc1 [Compound 5]
IL-6 production by TNF-α stimulated normal human stromal cells (result in words) (IL-6 production): blocked IL-6 production

O=C(O)CNC(=O)c1ccc(NCc2oc(CO)c(CNc3ccc(C(=O)NCC(=O)O)cc3)c(=O)c2O)cc1 [Compound 4]
MM cell growth (result in words) [1]: directly blocked MM cell growth

OC[C@@H](O)[C@@H](O)[C@H](O)[C@H](O)C(/C=N/Nc1ccccc1)=N/Nc1ccccc1 [Compound 2]
MM cell growth (result in words) [1]: directly blocked MM cell growth
IL-6 production by TNF-α stimulated normal human stromal cells (result in words) (IL-6 production): blocked IL-6 production

Reference: US11739053B2, “P62-ZZ chemical inhibitor” (ID4PHARMA, LLC, priority 2011, dated 2023)
